Measurements published in ChEMBL document CHEMBL1123973, “Renin inhibitors containing hydrophilic groups. Tetrapeptides with enhanced aqueous solubility and nanomolar potency” (J Med Chem, 1988).
In brackets after ≈: the same amount, converted by molar mass. Where a SMILES comes first, the peptide text is derived from it. [ ]: non-standard residue; d: D form. The star is where a group is joined. Sta = CC(C)C[C@H](N)[C@@H](O)CC(=O)O; Boc = CC(C)(C)OC(=O)*; NHBn = c1ccc(CN*)cc1

How the values were obtained:
physchem [1] = settings: S
[2] = tested on: Renin (Canis lupus familiaris); assay: Concentration required for 50% inhibition of renin at 10e-6 M of the compound
Renin = target: T1, Renin (Homo sapiens, UniProt P00797); assay: Concentration required for 50% inhibition of human plasma renin; assay type: cell-free
T1 sequence (P00797 whole entry): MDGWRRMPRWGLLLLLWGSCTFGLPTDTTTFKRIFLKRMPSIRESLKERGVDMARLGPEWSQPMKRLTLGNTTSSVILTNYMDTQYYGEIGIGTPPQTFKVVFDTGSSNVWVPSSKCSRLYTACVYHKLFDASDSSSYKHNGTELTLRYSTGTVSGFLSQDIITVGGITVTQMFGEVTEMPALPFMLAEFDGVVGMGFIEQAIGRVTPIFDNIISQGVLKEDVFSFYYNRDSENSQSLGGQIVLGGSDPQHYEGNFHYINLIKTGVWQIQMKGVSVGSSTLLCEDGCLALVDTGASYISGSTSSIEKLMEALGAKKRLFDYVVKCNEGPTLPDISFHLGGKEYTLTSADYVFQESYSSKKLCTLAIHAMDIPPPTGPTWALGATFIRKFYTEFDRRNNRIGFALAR

[3] = Partition coefficient (logD) (octanol/citric acid-phosphate buffer)
Renin (Sus scrofa) = assay: Inhibition of porcine kidney renin
physchem [4] = settings: phosphate buffer, pH 7.4, S
Description: Solubility (phosphate buffer, pH 7.4)

[5] = tested on: Renin (Canis lupus familiaris); assay: Concentration required for 50% inhibition of renin; 10e-6 (nM)
Sus scrofa = species: Sus scrofa; assay: Concentration required for 50% inhibition of porcine kidney renin at 10e-6 (nM) concentration
Renin (Homo sapiens) = target: T2, Renin (Homo sapiens) (UniProt P00797); assay: Concentration required for 50% inhibition of human plasma renin at 10e-6 nM of the compound; assay type: cell-free
T2 sequence (whole entry): T1 sequence (P00797 whole entry)

| SMILES | solubility (physchem [1]) | logD [3] | solubility (physchem [4]) | further results |
| --- | --- | --- | --- | --- |
| CC(C)CC(NC(=O)[C@H](Cc1cnc[nH]1)NC(=O)[C@H](Cc1ccccc1)NC(=O)OC(C)(C)C)C(O)CC(=O)N[C@@H](CC(C)C)C(=O)NCCN (stereo partly specified) | 2600 µM (≈ 1860 µg/mL) | 0.949 | 4900 µM (≈ 3500 µg/mL) | IC50 (Renin): 0.14 µM |
| CC(C)CC(NC(=O)[C@H](Cc1cnc[nH]1)NC(=O)[C@H](Cc1ccccc1)NC(=O)OC(C)(C)C)C(O)CC(=O)N[C@@H](CC(C)C)C(=O)NCc1cccc(OCC(=O)O)c1 (stereo partly specified) | 270 µM (≈ 226 µg/mL) | > 2 | 1800 µM (≈ 1500 µg/mL) |  |
| CC(C)C[C@H](NC(=O)CC(O)C(CC1CCCCC1)NC(=O)[C@H](Cc1cnc[nH]1)NC(=O)[C@H](Cc1ccccc1)NC(=O)OC(C)(C)C)C(=O)NCc1ccncc1 (stereo partly specified) |  | > 2 | < 10 µM |  |
| CC(C)CC(NC(=O)[C@H](Cc1cnc[nH]1)NC(=O)[C@H](Cc1ccccc1)NC(=O)OC(C)(C)C)C(O)CC(=O)N[C@@H](CC(C)C)C(=O)NCc1cccc(CN=C(N)N)c1 (stereo partly specified) | 3000 µM (≈ 2500 µg/mL) | 1.03 | 930 µM (≈ 775 µg/mL) |  |
| CC(C)C[C@H](NC(=O)CC(O)C(CC1CCCCC1)NC(=O)[C@H](Cc1c[nH]cn1)NC(=O)[C@H](Cc1ccccc1)NC(=O)OC(C)(C)C)C(=O)NCc1cccc(CN=C(N)N)c1 (stereo partly specified) | > 250 µM | > 2 | 40 µM (≈ 34.9 µg/mL) |  |
| CC(C)C[C@H](NC(=O)CC(O)C(CC1CCCCC1)NC(=O)[C@H](Cc1cnc[nH]1)NC(=O)[C@H](Cc1ccccc1)NC(=O)OC(C)(C)C)C(=O)NCc1cccc(OCC(=O)O)c1 (stereo partly specified) | 30 µM (≈ 26.3 µg/mL) | > 2 | 210 µM (≈ 184 µg/mL) |  |
| CC(C)CC(NC(=O)[C@H](Cc1c[nH]cn1)NC(=O)[C@H](Cc1ccccc1)NC(=O)OC(C)(C)C)C(O)CC(=O)N[C@@H](CC(C)C)C(=O)NCCN (stereo partly specified) |  |  |  | inhibition [5]: 32%; inhibition (Sus scrofa): 31% |
| CC(C)CC(NC(=O)[C@H](Cc1c[nH]cn1)NC(=O)[C@H](Cc1ccccc1)NC(=O)OC(C)(C)C)C(O)CC(=O)N[C@@H](CC(C)C)C(=O)NCCC(N)C(=O)O (stereo in doubt; 17) |  |  |  | inhibition [5]: 22%; inhibition (Renin (Homo sapiens)): 8%; inhibition (Sus scrofa): 0% |

Further lines, with some results ahead:

| solubility (physchem [1]) | logD [3] | solubility (physchem [4]) | SMILES | further results |
| --- | --- | --- | --- | --- |
| 24000 µM (≈ 18200 µg/mL) | 0.322 | 11000 µM (≈ 8330 µg/mL) | CC(C)CC(NC(=O)[C@H](Cc1c[nH]cn1)NC(=O)[C@H](Cc1ccccc1)NC(=O)OC(C)(C)C)C(O)CC(=O)N[C@@H](CC(C)C)C(=O)NCCN=C(N)N (stereo partly specified) | inhibition [2]: 32%; IC50 (Renin): 0.064 µM; IC50 (Renin (Sus scrofa)): 0.71 µM |
| 890 µM (≈ 705 µg/mL) | > 2 | 400 µM (≈ 317 µg/mL) | CC(C)CC(NC(=O)[C@H](Cc1c[nH]cn1)NC(=O)[C@H](Cc1ccccc1)NC(=O)OC(C)(C)C)C(O)CC(=O)N[C@@H](CC(C)C)C(=O)NCC(N)c1ccccn1 (stereo partly specified) |  |
| 6500 µM (≈ 5060 µg/mL) |  | 4200 µM (≈ 3270 µg/mL) | CC(C)CC(NC(=O)[C@H](Cc1cnc[nH]1)NC(=O)[C@H](Cc1ccccc1)NC(=O)OC(C)(C)C)C(O)CC(=O)N[C@@H](CC(C)C)C(=O)NCc1cc[n+]([O-])cc1 (stereo partly specified) |  |
| < 20 µM | > 2 | < 20 µM | CC(C)C[C@H](NC(=O)C[C@H](O)[C@H](CC(C)C)NC(=O)[C@H](Cc1c[nH]cn1)NC(=O)[C@H](Cc1ccccc1)NC(=O)OC(C)(C)C)C(=O)N[C@@H](Cc1ccccc1)C(N)=O (Boc-FH[Sta]LF-NH2) |  |
| 440 µM (≈ 336 µg/mL) | > 2 | 340 µM (≈ 259 µg/mL) | CC(C)CC(NC(=O)[C@H](Cc1c[nH]cn1)NC(=O)[C@H](Cc1ccccc1)NC(=O)OC(C)(C)C)C(O)CC(=O)N[C@@H](CC(C)C)C(=O)NCc1ccncc1 (stereo partly specified) |  |
| 380 µM (≈ 290 µg/mL) | > 2 | 180 µM (≈ 137 µg/mL) | CC(C)CC(NC(=O)[C@H](Cc1c[nH]cn1)NC(=O)[C@H](Cc1ccccc1)NC(=O)OC(C)(C)C)C(O)CC(=O)N[C@@H](CC(C)C)C(=O)NCc1ccccn1 (stereo partly specified) |  |
| < 10 µM | > 2 | < 10 µM | CC(C)C[C@H](NC(=O)C[C@H](O)[C@H](CC(C)C)NC(=O)[C@H](Cc1c[nH]cn1)NC(=O)[C@H](Cc1ccccc1)NC(=O)OC(C)(C)C)C(=O)NCc1ccccc1 (Boc-FH[Sta]L-NHBn) |  |
